Assay results as given in US5488051A, “Substituted 5,6-dihydro-5-oxo-1,4-dithiino-(2,3-d)-pyridazine-2,3-dicarbonitriles, compositions containing them and their use as antimicrobials” (The Dow Chemical Company, priority 1994, dated 1996).
Like-named read-outs stand apart in the source and are kept apart here.

Legend:
Bacillus subtilis (Bs) = assay: MIC for Bacillus subtilis, nutrient agar; type: cell-based, Bacillus subtilis ATCC 8473; conditions: 48 h
Protocol: (§1) The minimum inhibitory concentration (MIC) for the compounds listed in Table I is determined for 9 bacteria, using nutrient agar; and 7 yeast and fungi, using malt yeast agar. A one percent solution of the test compound is prepared in a mixture of acetone and water.
(§2) Nutrient agar is prepared at pH 6.8, representing a neutral medium, and at pH 8.2, representing an alkaline medium. The nutrient agars are prepared by adding 23 g of nutrient agar to one-liter of deionized water. In addition, the alkaline medium is prepared by adjusting a 0.04M solution of N-[tris-(hydroxymethyl)methyl]-glycine buffered deionized water with concentrated sodium hydroxide to a pH of 8.5.
(§3) The test tubes containing the malt yeast agar and the nutrient agar are cooled in a water bath until the temperature of the agar is 48° C. Then, an appropriate amount of the one percent solution of the test compound is added (except in the controls where no compound is added) to the respective test tubes so that the final concentrations are zero (0), 1.0, 2.5, 5, 10, 25, 50, 100, 250 and 500 parts per million of the test compound in each of the respective type of agar. The contents of each of the test tubes are then transferred to separate petri plates. After drying for 24 hours, the petri plates containing nutrient agar are inoculated with bacteria and those containing malt yeast agar are inoculated with yeast and fungi.
(§4) The inoculation with bacteria is accomplished by using the following procedure. Twenty-four hour-cultures of each of the bacteria are prepared by incubating the respective bacteria in tubes containing nutrient broth for 24 hours at 30° C. in a shaker. Dilutions of each of the 24 hour-cultures are made so that nine separate suspensions (one for each of the nine test bacteria) are made, each containing 10^8 colony forming units (CFU) per mL of suspension of a particular bacteria. Aliquots of 0.3 mL of each of the bacterial suspensions are used to fill the individual wells of Steer's Replicator. For each microbial suspension, 0.3 mL was used to fill three wells (i.e., three wells of 0.3 mL each) so that for the nine different bacteria, 27 wells are filled. The Steer's Replicator is then used to inoculate both the neutral and alkaline pH nutrient agar petri plates.
(§5) The inoculated petri plates are incubated at 30° C. for 48 hours and then read to determine if the test compound which is incorporated into the agar prevented growth of the respective bacteria.
(§6) Table II list the bacteria, yeast and fungi used in the MIC test described above along with their respective American Type Culture Collection (ATCC) identification numbers.

[1] = tested on: Enterobacter aerogenes (Ea); assay: MIC for Enterobacter aerogenes, nutrient agar; type: cell-based, Enterobacter aerogenes ATCC 13048; conditions: Klebsiella aerogenes, 48 h
Protocol: as §1, §2, §3, §4, §5, §6

Escherichia coli (Ec) = assay: MIC for Escherichia coli, nutrient agar; type: cell-based, Escherichia coli ATCC 11229; conditions: 48 h
Protocol: as §1, §2, §3, §4, §5, §6

[2] = tested on: Klebsiella pneumonias (Kp); assay: MIC for Klebsiella pneumonias, nutrient agar; type: cell-based, Klebsiella pneumonias ATCC 8308; conditions: 48 h
Protocol: as §1, §2, §3, §4, §5, §6

Proteus vulgaris (Pv) = assay: MIC for Proteus vulgaris, nutrient agar; type: cell-based, Proteus vulgaris ATCC 881; conditions: 48 h
Protocol: as §1, §2, §3, §4, §5, §6

[3] = tested on: Pseudomonas aeruginosa (PRD-10); assay: MIC for Pseudomonas aeruginosa PRD-10, nutrient agar; type: cell-based, Pseudomonas aeruginosa ATCC 15442; conditions: 48 h
Protocol: as §1, §2, §3, §4, §5, §6

[4] = tested on: Pseudomonas aeruginosa (Pa); assay: MIC for Pseudomonas aeruginosa, nutrient agar; type: cell-based, Pseudomonas aeruginosa ATCC 10145; conditions: 48 hours, read-out: Minimum Inhibitory Concentration (MIC), Pa
Protocol: as §1, §2, §3, §4, §5, §6

Salmonella choleraesuis = assay: MIC for Salmonella choleraesuis, nutrient agar; type: cell-based, Salmonella choleraesuis ATCC 10708; conditions: Salmonella enterica, 48 h
Protocol: as §1, §2, §3, §4, §5, §6

[5] = tested on: Staphylococcus aureus (Sa); assay: MIC for Staphylococcus aureus, nutrient agar; type: cell-based, Staphylococcus aureus ATCC 6538; conditions: 48 h
Protocol: as §1, §2, §3, §4, §5, §6

Aspergillus niger (An) = assay: MIC for Aspergillus niger, malt yeast agar; type: cell-based, Aspergillus niger ATCC 16404; conditions: 72 h, read-out: Minimum Inhibitory Concentration (MIC), An
Protocol: as §1
(§7) Malt yeast agar is prepared by adding 3 g yeast extract and 45 g malt agar per liter of deionized water. The specific agar is dispensed in 30 mL aliquots into 25×200 mm test tubes, capped and autoclaved for 15 minutes at 115° C.
as §3
(§8) The inoculation with the yeast and fungi is accomplished as follows. Cultures of yeast and fungi are incubated for seven days on malt yeast agar at 30° C. These cultures are used to prepare suspensions by the following procedure. A suspension of each organism is prepared by adding 10 mL of sterile saline and 10 microliters of octylphenoxy polyethoxy ethanol to the agar slant of yeast or fungi. The sterile saline/octylphenoxy polyethoxy ethanol solution is then agitated with a sterile swab to suspend the microorganism grown on the slant. Each resulting suspension is diluted into sterile saline (1 part suspension: 9 parts sterile saline). Aliquots of these dilutions are placed in individual wells of Steer's Replicator and petri plates inoculated as previously described. The petri plates are incubated at 30° C. and read after 48 hours for yeast and 72 hours for fungi.
as §6

Candida albicans (Ca) = assay: MIC for Candida albicans, malt yeast agar; type: cell-based, Candida albicans ATCC 10231; conditions: 48 h, read-out: Minimum Inhibitory Concentration (MIC), Ca
Protocol: as §1, §7, §3, §8, §6

[6] = tested on: Penicillium chrysogenum (Pc); assay: MIC for Penicillium chrysogenum, malt yeast agar; type: cell-based, Penicillium chrysogenum ATCC 9480; conditions: 72 h, read-out: Minimum Inhibitory Concentration (MIC), PC
Protocol: as §1, §7, §3, §8, §6

Saccharomyces cerevisiae = assay: MIC for Saccharomyces cerevisiae, malt yeast agar; type: cell-based, Saccharomyces cerevisiae ATCC 4105; conditions: 48 h, read-out: Minimum Inhibitory Concentration (MIC), Sc
Protocol: as §1, §7, §3, §8, §6

Trichoderma viride (Tv) = assay: MIC for Trichoderma viride, malt yeast agar; type: cell-based, Trichoderma viride ATCC 8678; conditions: 72 h, read-out: Minimum Inhibitory Concentration (MIC), Tv
Protocol: as §1, §7, §3, §8, §6

[7] = tested on: Aureobasidium pullulan (Ap); assay: MIC for Aureobasidium pullulan, malt yeast agar; type: cell-based, Aureobasidium pullulan ATCC 16622; conditions: read-out: Minimum Inhibitory Concentration (MIC), Ap
Protocol: as §1, §7, §3, §8, §6

Fusarium oxysporum (Fo) = assay: MIC for Fusarium oxysporum, malt yeast agar; type: cell-based, Fusarium oxysporum ATCC 48112; conditions: 72 h, read-out: Minimum Inhibitory Concentration (MIC), Fo
Protocol: as §1, §7, §3, §8, §6

Measured: MIC

ClC=CC[N+]12CN3CN(CN(C3)C1)C2.[Cl-] [STANDARD I, 1-(3-chloroallyl)-3,5,7-triaza-1-azoniaadamantane chloride, reference compound]
> 500 µg/mL: [4]; pH 8.2, 30° C. | Aspergillus niger (An) | Candida albicans (Ca) | [6] | Trichoderma viride (Tv) | [7] | Fusarium oxysporum (Fo)
250 µg/mL: Bacillus subtilis (Bs); pH 8.2, read-out: Minimum Inhibitory Concentration (MIC), Bs | [1]; pH 8.2, read-out: Minimum Inhibitory Concentration (MIC), Ea | Escherichia coli (Ec); pH 8.2, read-out: Minimum Inhibitory Concentration (MIC), Ec | [2]; pH 8.2, read-out: Minimum Inhibitory Concentration (MIC), Kp | Proteus vulgaris (Pv); pH 8.2, read-out: Minimum Inhibitory Concentration (MIC), Pv | [5]; pH 8.2, read-out: Minimum Inhibitory Concentration (MIC), Sa
50 µg/mL: Bacillus subtilis (Bs); pH 6.8, read-out: Minimum Inhibitory Concentration (MIC), Bs | [2]; pH 6.8, read-out: Minimum Inhibitory Concentration (MIC), Kp | Proteus vulgaris (Pv); pH 6.8, read-out: Minimum Inhibitory Concentration (MIC), Pv | Salmonella choleraesuis; pH 6.8, read-out: Minimum Inhibitory Concentration (MIC), SC
100 µg/mL: [1]; pH 6.8, read-out: Minimum Inhibitory Concentration (MIC), Ea | Escherichia coli (Ec); pH 6.8, read-out: Minimum Inhibitory Concentration (MIC), Ec | [3]; pH 6.8, read-out: Minimum Inhibitory Concentration (MIC), PRD | [4]; pH 6.8, 30° C. | Salmonella choleraesuis; pH 8.2, read-out: Minimum Inhibitory Concentration (MIC), SC | [5]; pH 6.8, read-out: Minimum Inhibitory Concentration (MIC), Sa
500 µg/mL: [3]; pH 8.2, read-out: Minimum Inhibitory Concentration (MIC), PRD | Saccharomyces cerevisiae
